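Results reflect a 48-hour exposure of cells in 96-well plates to compound at five concentrations. GI50 marks 50% less growth. TGI is the concentration that stops growth completely.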
What was measured:
Test in all cases: NCI tumour cell line growth inhibition, 48 h
[1] = test system: SF-539 CNS
[2] = test system: RXF 393 renal
[3] = test system: A498 renal
[4] = test system: UACC-257 melanoma
[5] = test system: COLO 205 colon
[6] = test system: K-562 leukemia
[7] = test system: SNB-19 CNS
[8] = test system: TK-10 renal
[9] = test system: ACHN renal
[10] = test system: SK-MEL-2 melanoma

| SMILES | TGI [1] | TGI [2] | TGI [3] | TGI [4] | TGI [5] | TGI [6] | TGI [7] | TGI [8] | TGI [9] | TGI [10] | GI50 [1] | GI50 [2] | GI50 [3] | GI50 [4] | GI50 [5] | GI50 [6] | GI50 [7] | GI50 [8] | GI50 [9] | GI50 [10] |
| --- | --- | --- | --- | --- | --- | --- | --- | --- | --- | --- | --- | --- | --- | --- | --- | --- | --- | --- | --- | --- |
| Cc1c(Cl)ccc2c1NC(=O)C2(O)C1Cc2ccccc2C1=O (configuration not stated) | > 100 µM | > 100 µM | > 100 µM | > 100 µM | > 100 µM | > 100 µM | > 100 µM | > 100 µM | > 100 µM | > 100 µM |  |  |  |  |  |  |  |  |  |  |
| Cc1ccc(S(=O)(=O)n2cc(C(=O)C(=O)Nc3ccncc3)c3ccccc32)cc1 | 6.84 µM | 9.29 µM | 77.6 µM | 98.1 µM | 48.1 µM | > 100 µM | > 100 µM | > 100 µM | > 100 µM | > 71.4 µM | 1.56 µM | 2.7 µM | 4.11 µM | 9.03 µM | 18.7 µM | 0.522 µM | 7.37 µM | 16.8 µM | 7.82 µM | 5.76 µM |
| C=CCN(N=O)C(=O)N(CCC)CCCCC(NC(C)=O)C(=O)NCc1ccccc1 (configuration not stated) | > 100 µM | > 100 µM | > 100 µM | > 100 µM | > 100 µM | > 100 µM | > 100 µM | > 100 µM | > 100 µM | > 100 µM |  |  |  |  |  |  |  |  |  |  |
| C/C(=C\c1ccn(-c2ccc(N)cc2)n1)[C@@H]1C[C@@H]2O[C@]2(C)CCC[C@H](C)[C@H](O)[C@@H](C)C(=O)C(C)(C)[C@@H](O)CC(=O)O1 | 0.357 µM | 0.406 µM | 3.66 µM |  | 0.634 µM | > 50 µM | > 50 µM | > 50 µM | > 50 µM | > 50 µM | 0.0702 µM | 0.0478 µM | 0.102 µM |  | 0.0175 µM | 0.0248 µM | 0.29 µM | 0.124 µM | 0.161 µM | 0.0758 µM |
| CC1OC(O)CC(OC(=O)c2ccccc2)C1OC(=O)c1ccccc1 (configuration not stated) | 31.7 µM | 39.3 µM | > 100 µM | 29.4 µM | 80.9 µM | 57.5 µM | > 100 µM | > 100 µM | > 100 µM |  |  |  |  |  |  |  |  |  |  |  |
| [N-]=[N+]=CC(=O)OCC(N)C(=O)O (configuration not stated) | > 100 µM | > 100 µM | > 100 µM | > 100 µM | > 100 µM |  | > 100 µM | > 100 µM | > 100 µM | > 100 µM | 0.64 µM | 4.46 µM | 57.6 µM | 3.61 µM | 0.778 µM |  | 2.28 µM | 0.573 µM | 1.7 µM | 15.9 µM |
| CCOC(=O)c1cc2ncccc2c2ccccc12 |  | > 100 µM |  | > 100 µM | > 100 µM | > 100 µM | > 100 µM | > 100 µM | > 100 µM | > 100 µM |  |  |  |  |  |  |  |  |  |  |
| O=C(CC(=O)C(F)(F)F)c1csc2ccccc12 | > 100 µM |  |  | > 100 µM | > 100 µM | > 100 µM | > 100 µM | 28.4 µM | > 100 µM | 53.7 µM |  |  |  |  |  |  |  |  |  |  |
| COc1cnc2c(c1)C(=O)c1c-2n(CCCN2CCN(C)CC2)c(=O)c2cc(Cl)ccc12 | 5.31 µM | 13.3 µM | 9.61 µM | 22.3 µM | > 100 µM | 3.51 µM | 78.9 µM |  | 14.3 µM | 23.2 µM | 2.15 µM | 1.9 µM | 0.959 µM | 4.04 µM | 1.3 µM | 1.19 µM | 13.8 µM |  | 0.783 µM | 5.29 µM |
| Clc1ccc2nc(CCSCCc3nc4ccc(Cl)cc4[nH]3)[nH]c2c1 | 32.7 µM | 38.6 µM |  | 26.3 µM | 29 µM | 38.3 µM |  | 22.1 µM | 11.4 µM | 28.8 µM |  |  |  |  |  |  |  |  |  |  |
| COc1ccc2c(c1)[n+]([O-])c(-c1nc3ccccc3s1)c(N)[n+]2[O-] | > 100 µM |  | > 100 µM | > 100 µM | > 100 µM | > 100 µM | > 100 µM |  | > 100 µM | > 100 µM |  |  |  |  |  |  |  |  |  |  |
| CC[C@H](C)C(=O)O[C@H]1CCC=C2C=C[C@H](C)C(CCC3C[C@@H](O)CC(=O)O3)[C@H]21 (some centres not stated) | > 100 µM | 24.4 µM | 2.42 µM | > 100 µM | 36.8 µM |  | > 100 µM | > 100 µM | > 100 µM | > 100 µM | 83.2 µM | 3.65 µM | 0.0183 µM | > 100 µM | 10.5 µM |  | 18.4 µM | 18.5 µM | 1.7 µM | 6.98 µM |
| O=C1c2ccccc2C(=O)c2nc(-c3ccccc3)c(-c3ccccc3)nc21 | > 100 µM | > 100 µM | > 93.6 µM |  | > 100 µM | > 100 µM | > 100 µM | > 100 µM | > 100 µM | > 100 µM |  |  |  |  |  |  |  |  |  |  |
| Cc1ccc2sc3c(NCCCNCCO)nc4ccccc4c3c(=O)c2c1 | 3.08 µM | 2.88 µM | 3.49 µM | 3.76 µM | 3.19 µM | 3.72 µM |  |  | 2.98 µM | 3.36 µM | 1.68 µM | 1.5 µM | 1.44 µM | 1.87 µM | 1.55 µM | 1.36 µM |  |  | 1.6 µM | 1.73 µM |
| CCOC(=O)C1=C(C)N(NC(=O)c2ccccc2)C2(O)CCCC12C(=O)OCC (configuration not stated) | > 100 µM | > 100 µM | > 100 µM | > 100 µM |  | > 100 µM | > 100 µM |  | > 100 µM | > 100 µM |  |  |  |  |  |  |  |  |  |  |
| CCOC(=O)c1c(Cl)c2c(n1Cc1cc(OC)cc(OC)c1)-c1oncc1CCC2 |  | 6.03 µM | 0.605 µM | > 100 µM | 1.49 µM | > 100 µM | > 100 µM | > 100 µM | > 100 µM | 4.07 µM |  | 0.201 µM | 0.0797 µM | 0.92 µM | 0.301 µM | 0.225 µM | 0.629 µM | 10.3 µM | 1.54 µM | 0.226 µM |
| O=C(C=Nc1ccccc1C(=O)[O-])c1cccs1.O=C(C=Nc1ccccc1C(=O)[O-])c1cccs1.[Cu+2] |  |  | > 100 µM | > 100 µM | > 100 µM | > 100 µM | > 100 µM | > 100 µM | > 100 µM | > 100 µM |  |  |  |  |  |  |  |  |  |  |
